The text below walks through data of ChEMBL document CHEMBL4819125, “Synthesis and anti-proliferation activity of mogrol derivatives bearing quinoline and triazole moieties” (Bioorg Med Chem Lett, 2021).

A word on the inhibition: it is the change of the read-out against control, counted positive when it falls. As usually defined, the IC50 is the midpoint of a concentration-inhibition curve.

Assay [1] relates to A549. In words: Antiproliferative activity against human A549 cells assessed as reduction in cell growth at 30 uM by CCK8 assay relative to control. In kind it is functional. In general terms: Tetrazolium assays rely on reduction of a dye to a coloured formazan, in cell work by metabolically active cells.
For assay [2], the system named is A549. In words: Antiproliferative activity against human A549 cells assessed as reduction in cell growth by CCK8 assay. In kind it is functional, cell-based.
The subject of assay [3] is NCI-H460. In words: Antiproliferative activity against human NCI-H460 cells assessed as reduction in cell growth by CCK8 assay. In kind it is functional, cell-based.
Assay [4] deals with NCI-H460. In words: Antiproliferative activity against human NCI-H460 cells assessed as reduction in cell growth at 30 uM by CCK8 assay relative to control. Type of assay: functional.

`C[C@H](Cc1cnc2ccccc2c1)[C@H]1CC[C@@]2(C)[C@@H]3CC=C4[C@@H](CC[C@H](O)C4(C)C)[C@]3(C)[C@H](O)C[C@]12C`: the figures for the inhibition at 30 µM in assay [1] and in assay [4] were 91.5% and 69.9%, respectively. Moreover, the concentration for half-maximal inhibition (IC50) in assay [2] worked out at 19.2 µM; in assay [3] it was 24.6 µM.

With `C[C@H](Cc1cnc2cc(Br)ccc2c1)[C@H]1CC[C@@]2(C)[C@@H]3CC=C4[C@@H](CC[C@H](O)C4(C)C)[C@]3(C)[C@H](O)C[C@]12C`, the inhibition at 30 µM in assay [1] worked out at 42.7%; in assay [4] it was 0.71%.

For the molecule `C[C@H](CCCOC(=O)Cn1cc(-c2ccsc2)nn1)[C@H]1CC[C@@]2(C)[C@@H]3CC=C4[C@@H](CC[C@H](O)C4(C)C)[C@]3(C)[C@H](O)C[C@]12C`, the inhibition at 30 µM in assay [1] worked out at 90.5%; in assay [4] it was 8.3%. Also, the IC50 in assay [2] stood at 26.1 µM.

For the molecule `C[C@H](CC[C@@H](O)C(C)(C)O)[C@H]1CC[C@@]2(C)[C@@H]3CC=C4[C@@H](CC[C@H](O)C4(C)C)[C@]3(C)[C@H](OC(=O)Cn3cc(-c4ccccc4)nn3)C[C@]12C`, the inhibition at 30 µM in assay [1] came out at 83%; in assay [4], 44.9%. Moreover, the IC50 in assay [2] turned out to be 6.75 µM.

Regarding `C[C@H](CC[C@@H](O)C(C)(C)O)[C@H]1CC[C@@]2(C)[C@@H]3CC=C4[C@@H](CC[C@H](O)C4(C)C)[C@]3(C)[C@H](O)C[C@]12C` [MOGROL], the inhibition at 30 µM in assay [1] was 62.9%; in assay [4], -13.2%. Also, the IC50 in assay [2] is 27.8 µM; in assay [3], more than 100 µM.

For the molecule `C[C@H](CC[C@@H](O)C(C)(C)O)[C@H]1CC[C@@]2(C)[C@@H]3CC=C4[C@@H](Cc5cc6cc(Cl)ccc6nc5C4(C)C)[C@]3(C)C(=O)C[C@]12C`, the inhibition at 30 µM in assay [1] turned out to be 84.1%; in assay [4] it was 13.1%. Also, in assay [2], the IC50 was 12.9 µM.

`C[C@H](Cc1cnc2cnccc2c1)[C@H]1CC[C@@]2(C)[C@@H]3CC=C4[C@@H](CC[C@H](O)C4(C)C)[C@]3(C)[C@H](O)C[C@]12C`: the inhibition at 30 µM worked out at 90.2% in assay [1] and 25.8% in assay [4]. In assay [2], the half-maximal inhibitory concentration (IC50) is 18.2 µM.

For `C[C@H](Cc1cnc2cc(Cl)ccc2c1)[C@H]1CC[C@@]2(C)[C@@H]3CC=C4[C@@H](CC[C@H](O)C4(C)C)[C@]3(C)[C@H](O)C[C@]12C`, the values for the inhibition at 30 µM in assay [1] and in assay [4] were 17.4% and -1.18%, respectively.

Consider `C[C@H](CC[C@@H](O)C(C)(C)O)[C@H]1CC[C@@]2(C)[C@@H]3CC=C4[C@@H](CC[C@H](O)C4(C)C)[C@]3(C)[C@H](OC(=O)Cn3cc(-c4ccsc4)nn3)C[C@]12C`, for which the inhibition at 30 µM in assay [1] turned out to be 90.5%; in assay [4], 44.9%. Moreover, the 50% inhibitory concentration (IC50) in assay [2] amounted to 6.27 µM.

For `C[C@H](CC[C@@H](O)C(C)(C)O)[C@H]1CC[C@@]2(C)[C@@H]3CC=C4[C@@H](Cc5cc6ccc(Br)cc6nc5C4(C)C)[C@]3(C)C(=O)C[C@]12C`, the inhibition at 30 µM in assay [1] came to 22%; in assay [4] it was 1.65%.

Consider `Cc1ccc(-c2cn(CC(=O)OCCC[C@@H](C)[C@H]3CC[C@@]4(C)[C@@H]5CC=C6[C@@H](CC[C@H](O)C6(C)C)[C@]5(C)[C@H](O)C[C@]34C)nn2)cc1`, for which the values for the inhibition at 30 µM in assay [1] and in assay [4] were 88.4% and 10.9%, respectively. Moreover, the IC50 in assay [2] came to 23.8 µM.

Turning to `C[C@H](Cc1cnc2ccc(Cl)cc2c1)[C@H]1CC[C@@]2(C)[C@@H]3CC=C4[C@@H](CC[C@H](O)C4(C)C)[C@]3(C)[C@H](O)C[C@]12C`, the inhibition at 30 µM in assay [1] is 10.6%; in assay [4] it was -12.6%.

With `O=c1[nH]cc(F)c(=O)[nH]1` [FLUOROURACIL], the IC50 was 1.65 µM in assay [2] and 7.03 µM in assay [3].

Turning to `C[C@H](CCCOC(=O)Cn1cc(-c2ccccc2)nn1)[C@H]1CC[C@@]2(C)[C@@H]3CC=C4[C@@H](CC[C@H](O)C4(C)C)[C@]3(C)[C@H](O)C[C@]12C`, the inhibition at 30 µM in assay [1] was found to be 87.9%; in assay [4] it was 7.56%. In addition, in assay [2], the 50% inhibitory concentration (IC50) is 22.5 µM.

With `C[C@H](Cc1cnc2ccc(Br)cc2c1)[C@H]1CC[C@@]2(C)[C@@H]3CC=C4[C@@H](CC[C@H](O)C4(C)C)[C@]3(C)[C@H](O)C[C@]12C`, the results for the inhibition at 30 µM in assay [1] and in assay [4] were 53.3% and -12.4%, respectively.

On to `C[C@H](CC[C@@H](O)C(C)(C)O)[C@H]1CC[C@@]2(C)[C@@H]3CC=C4[C@@H](Cc5cc6cc(Br)ccc6nc5C4(C)C)[C@]3(C)C(=O)C[C@]12C`, for which the values for the inhibition at 30 µM in assay [1] and in assay [4] were 69.4% and 17%, respectively. In addition, in assay [2], the IC50 was found to be 13.1 µM.

For `C[C@H](CC[C@@H](O)C(C)(C)O)[C@H]1CC[C@@]2(C)[C@@H]3CC=C4[C@@H](Cc5cc6ccc(Cl)cc6nc5C4(C)C)[C@]3(C)C(=O)C[C@]12C`, the inhibition at 30 µM in assay [1] was 6.68%; in assay [4], 2.18%.

Turning to `C[C@H](CC[C@@H](O)C(C)(C)O)[C@H]1CC[C@@]2(C)[C@@H]3CC=C4[C@@H](CC[C@H](O)C4(C)C)[C@]3(C)[C@H](OC(=O)Cn3cc(-c4ccc(C#N)cc4)nn3)C[C@]12C`, the inhibition at 30 µM in assay [1] is 76.7%; in assay [4], 20.5%. Further, the IC50 in assay [2] came out at 5.79 µM.

As to `C[C@H](CC[C@@H](O)C(C)(C)O)[C@H]1CC[C@@]2(C)[C@@H]3CC=C4[C@@H](Cc5cc6ccccc6nc5C4(C)C)[C@]3(C)C(=O)C[C@]12C`, the values for the inhibition at 30 µM in assay [1] and in assay [4] were 94.3% and 80.2%, respectively. The results for the IC50 in assay [2] and in assay [3] were 13.8 µM and 17.1 µM, respectively.

Take `C[C@H](CCCOC(=O)Cn1cc(C2CC2)nn1)[C@H]1CC[C@@]2(C)[C@@H]3CC=C4[C@@H](CC[C@H](O)C4(C)C)[C@]3(C)[C@H](O)C[C@]12C`: the inhibition at 30 µM in assay [1] was 89.2%; in assay [4], 6.43%. In assay [2], the IC50 worked out at 17.7 µM.

With `Cc1ccc(-c2cn(CC(=O)O[C@@H]3C[C@]4(C)[C@@H]([C@H](C)CC[C@@H](O)C(C)(C)O)CC[C@@]4(C)[C@@H]4CC=C5[C@@H](CC[C@H](O)C5(C)C)[C@@]43C)nn2)cc1`, the inhibition at 30 µM in assay [1] was found to be 77.3%; in assay [4] it was 40%. Also, the IC50 in assay [2] came to 5.96 µM.

For the molecule `C[C@H](CC[C@@H](O)C(C)(C)O)[C@H]1CC[C@@]2(C)[C@@H]3CC=C4[C@@H](CC[C@H](O)C4(C)C)[C@]3(C)[C@H](OC(=O)Cn3cc(C4CC4)nn3)C[C@]12C`, the inhibition at 30 µM came out at 92.9% in assay [1] and 34.7% in assay [4]. Also, the 50% inhibitory concentration (IC50) in assay [2] is 19.8 µM.

For `C[C@H](CC[C@@H](O)C(C)(C)O)[C@H]1CC[C@@]2(C)[C@@H]3CC=C4[C@@H](Cc5cc6ccncc6nc5C4(C)C)[C@]3(C)C(=O)C[C@]12C`, the figures for the inhibition at 30 µM in assay [1] and in assay [4] were 95.2% and 81.1%, respectively. Moreover, the values for the IC50 in assay [2] and in assay [3] were 14.3 µM and 18.3 µM, respectively.
